Reference: patent EP2369000A1, “Production of peptides and proteins by accumulation in mitochondria” (3T-Science, S.L., priority 2010, dated 2011)

System: internal mitochondrial proteases
Test: MALDI-TOF-TOF sequence confirmation of MTS cleavage
Design: species or system Kluyveromyces lactis
Details: for Peptide detected: RFP sequence (1-9) VSKGEELIK, position 1-9; for cleavage of the MTS: enriched sample, gel piece, trypsin digestion
Method: The enriched sample was analysed on a 15% SDS-PAGE gel and stained with Coomassie blue. After de-staining the gel a piece of the SDS-PAGE gel was cut at the position where the RFP was expected. This was washed extensively in water and analysed by MALDI-TOF-TOF analysis after trypsin digestion. […]

| Substance | Peptide detected | cleavage of the MTS |
| --- | --- | --- |
| MIS-VII: synthetic mitochondrial targeting sequence (MTS), SEQ ID NO: 2, containing the core RRRA (RLRRRAARSLARSAARR) | VSKGEELIK | cleavage was correct |
| MIS-XIII: synthetic mitochondrial targeting sequence (MTS), SEQ ID NO: 3, containing the core RRRA (RAARRRAARR) | VSKGEELIK | cleavage was correct |
| MIS-XIV: synthetic mitochondrial targeting sequence (MTS), SEQ ID NO: 4, containing the core RRRA (RARRRARR) | VSKGEELIK | cleavage was correct |
